For 24 molecules, TGI and GI50 results are on record in PubChem BioAssay (NCI).

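Test compounds were applied to cells in 96-well plates for 48 hours at 5 doses. Abbreviation: GI50, concentration required for 50% inhibition of growth. The concentration for full growth arrest is given as TGI.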 Where a SMILES comes first, the peptide text is derived from it. [ ]: non-standard residue; d: D form. The star is where a group is joined. ξ: configuration not given here. ξW = NC(Cc1c[nH]c2ccccc12)C(=O)O; X30 = O=C(O)[C@H]1CCC[C@H]1N*; ξF = NC(Cc1ccccc1)C(=O)O; Boc = CC(C)(C)OC(=O)*; ξK = NCCCCC(N)C(=O)O; ξT = CC(O)C(N)C(=O)O; tBu = CC(C)(C)*

What all share (assay): DTP human tumour cell line panel, 48 h
The subject of assay [1] is SR leukemia.
The subject of assay [2] is CCRF-CEM leukemia.
The subject of assay [3] is K-562 leukemia.
The subject of assay [4] is EKVX NSCLC.
Assay [5] concerns 786-0 renal.
For assay [6], the system named is U251 CNS.
For assay [7], the system named is SF-539 CNS.
Assay [8] relates to HCT-15 colon.
Assay [9] deals with SN12C renal.
For assay [10], the system named is SNB-19 CNS.
Assay [11] concerns OVCAR-5 ovarian.
Assay [12] concerns SK-MEL-2 melanoma.
Assay [13] deals with A498 renal.

The TGI is the concentration at which net growth stops. A word on the GI50: it is the concentration giving 50% growth inhibition.

For `COc1ccc(N2C(=O)C3c4[nH]c5cc(Cl)ccc5c4C4CCC(C(C)(C)C)CC4C3C2=O)cc1` (stereo unspecified), the TGI in assay [1] was 43.6 µM; in assay [2], over 100 µM; in assay [3], over 100 µM; in [4] it was over 100 µM; in assay [5] it was over 100 µM; in assay [6], over 100 µM. Further, the TGI in assay [7], in assay [8], in assay [9] and in [10] was over 100 µM throughout.
Regarding `COC(=O)C1=C(OC(=O)/C(=C/c2c(F)cccc2F)c2ccccc2)C(C(=O)OC)[C@@]2(O)[C@@H](C(=O)OC)[C@H](C)C[C@@H]1[C@@H]2C(=O)OC` (stereo partly specified), the concentration for total growth inhibition (TGI) in [2], in assay [3], in assay [4], in assay [5], in [6] and in assay [11] was over 100 µM throughout. Also, the TGI in assay [7], in assay [8], in [9], in assay [10] and in assay [12] was over 100 µM throughout.
On to `CCCCCCCCCCCCCCCCNc1ccc2c(c1)OCCOCCOCCOCCO2`, for which the TGI in assay [1] was 8.14 µM; in assay [2], 7.62 µM; in [3], 10.7 µM; in assay [4], 14.4 µM; in assay [5] it was 13.8 µM; in [6], 10.4 µM. Moreover, the TGI in assay [11] was determined as 14.2 µM; in [7] it was 9.43 µM; in assay [8] it was 13.5 µM; in assay [9] it was 10.5 µM; in assay [10], 14.2 µM; in assay [12], 4.44 µM.
Consider `O=C1CCCCCCCCCCC1CN(Cc1ccccc1)Cc1ccccc1` (stereo unspecified), for which the TGI in assay [1] is over 100 µM; in assay [2], 50.2 µM; in [3], over 100 µM; in assay [4] it was over 100 µM; in [5], over 100 µM; in assay [6], 49.6 µM. Besides, the TGI in [11], in assay [7], in assay [8], in [9] and in assay [10] was over 100 µM in each case.
For the molecule `Cc1ccc(C2SC(N)=Nc3c2c(C)nn3C(=O)c2ccc(Cl)cc2)cc1` (stereo unspecified), the TGI in assay [1], in [2], in [3], in assay [4], in [5] and in assay [6] was over 10 µM each time. Besides, the TGI in [11], in assay [7], in assay [8], in assay [9], in assay [10] and in assay [12] was over 10 µM throughout.
As for `ClCCCC1COc2ccccc2O1` (stereo unspecified), the TGI in [1], in [2], in assay [3], in assay [4], in assay [5] and in [6] was over 100 µM throughout. For the same molecule, the concentration for total growth inhibition (TGI) in assay [11], in assay [7], in assay [8], in assay [9] and in assay [10] was over 100 µM throughout.
Turning to `Cc1ccc(C(O)/C(=N/N)c2nc3ccc([N+](=O)[O-])cc3[nH]c2=O)cc1` (stereo unspecified), the TGI in assay [1], in assay [2], in assay [3], in assay [5], in assay [6] and in assay [11] was over 100 µM throughout. For the same molecule, the TGI in [8], in [9], in [10] and in assay [12] was over 100 µM in each case.
Take `O=c1nc(-c2ccccc2)scc1-c1ccccc1`: the TGI in [1], in [2], in [3], in assay [4], in [5] and in [6] was over 100 µM throughout. Further, the TGI in [7], in assay [8], in assay [9], in assay [10] and in assay [12] was over 100 µM each time.
Regarding `COC(=O)c1cn(CCCCO)nn1`, the total growth inhibition concentration (TGI) in assay [1], in assay [2], in assay [4], in assay [5], in [6] and in assay [7] was over 100 µM each time. Further, the total growth inhibition concentration (TGI) in assay [8], in [9], in assay [10] and in assay [12] was over 100 µM in each case.
In the case of `CCN1C(=O)C(N=[N+]=[N-])(c2ccccc2)C(=O)c2ccccc21` (stereo unspecified), the TGI in assay [1], in assay [2], in [3], in [4], in assay [5] and in [6] was over 100 µM throughout. The total growth inhibition concentration (TGI) in assay [11], in [7], in [8], in assay [9], in assay [10] and in assay [12] was over 100 µM each time.
Consider `CC(OC(C)(C)C)C(NC(=O)C(CCCCNC(=O)OC(C)(C)C)NC(=O)C(Cc1c[nH]c2ccccc12)NC(=O)C(N)Cc1ccccc1)C(=O)NC(Cc1ccccc1)C(=O)N[C@@H]1CCC[C@@H]1C(=O)O` (stereo partly specified) (H-[ξF][ξW][ξK](Boc)[ξT](tBu)[ξF]-X30), for which the concentration for total growth inhibition (TGI) in assay [1] is over 100 µM; in assay [2], 92.4 µM; in [3], over 100 µM; in assay [4], over 100 µM; in assay [5], over 100 µM; in [6], 68.3 µM. Also, the TGI in [11] was determined as 40.6 µM; in assay [7], 36.5 µM; in [9], 67.2 µM; in assay [10], 51.2 µM; in assay [12] it was 41.5 µM.
For the molecule `CC(=O)O[C@]12CCCCC1C1(O)C(O)CCCC[C@H]12` (stereo partly specified), the TGI in assay [1], in assay [2], in assay [3], in assay [4], in assay [5] and in assay [6] was over 100 µM each time. Moreover, the TGI in [8], in [9], in assay [10] and in assay [12] was over 100 µM throughout.
In the case of `Cc1cn(CCCCOC(=O)NC(CCCNC(N)=O)C(=O)O)c(=O)[nH]c1=O` (stereo unspecified), the TGI in assay [1], in [2], in assay [3], in assay [4], in [5] and in assay [6] was over 100 µM in each case. The TGI in assay [11], in assay [7], in [8], in [9], in assay [10] and in assay [12] was over 100 µM throughout.
`OCCN1CCN(c2nc(Nc3ccc(-c4nc5ccccc5[nH]4)cc3)c3cn[nH]c3n2)CC1`: the GI50 in assay [4] is 1.73 µM; in [11], 1.83 µM; in assay [7], 1.7 µM; in assay [8] it was 1.15 µM; in [13] it was 1.92 µM. Moreover, the TGI in assay [4] came out at 3.26 µM; in [11], 3.26 µM; in assay [7], 3.08 µM; in assay [8] it was 2.5 µM; in [13], 3.44 µM.
Regarding `COc1ccc(C(=O)C(CC2C(=O)CC(C)(C)C(C(=O)C(=O)Nc3c(C)cccc3C)C2=O)c2ccc(OC)cc2)cc1` (stereo unspecified), the TGI in assay [1] is 91.9 µM; in assay [2] it was over 100 µM; in assay [4] it was over 100 µM; in assay [5], over 100 µM; in assay [6], over 100 µM; in assay [11], over 100 µM. Moreover, the TGI in [7], in assay [8], in assay [9], in assay [10] and in assay [12] was over 100 µM throughout.
Consider `CCOc1ccc(N=Nc2c(-c3ccccc3)nn(C(=O)CC(=O)Nc3cccc(C)c3)c2-c2ccccc2)cc1`, for which the TGI in assay [1], in [2], in [3], in [4], in assay [5] and in assay [6] was over 100 µM in each case. Besides, the TGI in [11], in assay [7], in assay [9], in assay [10] and in assay [12] was over 100 µM in each case.
Regarding `O=C(Nc1ccc(N2C(=O)CSC2c2cccs2)cc1)c1ccc(N2C(=O)CSC2c2cccs2)cc1` (stereo unspecified), the TGI in [2], in assay [3], in [4], in assay [5], in [6] and in assay [11] was over 100 µM in each case. The TGI in assay [7], in assay [8], in [9], in assay [10] and in assay [12] was over 100 µM in each case.
With `CCN(CC)CCNc1ccc2ncn3c4c(OC)ccc(=O)c4c(O)c1c23`, the TGI was over 31.6 µM in assay [1]; over 100 µM in assay [2]; over 100 µM in assay [3]; over 100 µM in [4]; over 100 µM in assay [5]; over 100 µM in assay [6]. Besides, the TGI in [11] is over 92.7 µM; in assay [7], 31.3 µM; in assay [8] it was over 100 µM; in [9] it was over 100 µM; in assay [10], over 100 µM; in [12], over 100 µM.
In the case of `CN(C)C(=O)C(F)(F)C(c1ccc(C(F)(F)F)cc1)C1C(=O)N(C)C(=O)N(C)C1=O` (stereo unspecified), the TGI in [2], in assay [4], in assay [5], in assay [6], in [11] and in assay [8] was over 100 µM throughout. Further, the TGI in assay [10], in assay [13] and in [12] was over 100 µM in each case.
With `CCN(CC)CCOCC1CCCN2CCCCC12` (stereo unspecified), the TGI in [2], in assay [3], in [4], in [5], in assay [6] and in assay [11] was over 100 µM throughout. For the same molecule, the TGI in assay [7], in assay [8], in assay [9], in assay [10] and in assay [12] was over 100 µM each time.
With `Cc1nc2ccc(S(=O)(=O)Nc3ccccc3Cl)cc2c(=O)n1NC(=O)CNc1ccccc1Cl`, the TGI in [1], in assay [2], in assay [3], in assay [4], in assay [5] and in [6] was over 100 µM each time. The TGI in [11], in [7], in assay [8], in assay [9], in assay [10] and in assay [12] was over 100 µM throughout.
For the molecule `C=CCN(c1cc(OCc2ccccc2)c2c(c1)c(C)cn2S(=O)(=O)c1ccccc1)S(C)(=O)=O`, the TGI in assay [1], in assay [2], in assay [3], in assay [4], in [5] and in assay [6] was over 100 µM in each case. The TGI in [11], in assay [7], in [8], in [9], in [10] and in assay [12] was over 100 µM in each case.
Regarding `NC(N)=NCCCC(NCc1c2ccccc2[n+]([O-])c2ccccc12)C(=O)O` (stereo unspecified), the TGI is 83.3 µM in [2]; over 100 µM in assay [3]; over 100 µM in assay [4]; over 100 µM in [5]; over 100 µM in [6]; over 100 µM in assay [11]. The TGI in assay [8], in assay [9], in assay [10], in assay [13] and in assay [12] was over 100 µM each time.
`Cc1cccc(Nc2nc(NNC(=O)Cc3ccccc3)nc(NNC(=O)c3ccncc3)n2)c1`: the TGI in assay [1], in [2], in [4], in assay [5], in assay [7] and in assay [8] was over 10 µM each time. The concentration for total growth inhibition (TGI) in assay [9] and in assay [10] was over 10 µM throughout.
